In assay [1] the test system is activated CaMKIIγ in U937 cells. The assay can be described thus: Western blot of CaMKIIγ autophosphorylation in U937 cells. Type of assay: cell-based, human. On the procedure:
FIG. 9. Terminal differentiation/apoptosis of myeloid leukemia cells is associated with decreased CaMKIIγ activation. (A) Lysates from the HL60, NB4 and U937 myeloid cell lines treated with ATRA (1 μM) for the indicated period of time were subjected to Western blots. (B) Lysates from the indicated myeloid cell lines treated for five days with the indicated concentration of ATRA were subjected to Western blots. (C) Lysates from HL60 cells treated with TPA (0.1 μM) for the indicated time were subjected to Western blots. (D) Lysates from NB4 cells treated with arsenic trioxide (1 uM) for the indicated time were subjected to Western blots.
Antibodies and Western blots. Protein extracts, immunoprecipitations and Western blots were performed as previously detailed (Si J, Collins S J. IL-3-induced enhancement of retinoic acid receptor activity is mediated through Stat5, which physically associates with retinoic acid receptors in an IL-3-dependent manner. Blood 100: 4401-9 (2002)). Antibodies against CaMKI, CaMKIIγ, CaMKIV, c-myc, Stat3, Stat5, calmodulin, as well as the phosphospecific CaMKII (T286, 287) and phosphospecific CaMKI (T177) antibodies were from Santa Cruz Biotechnology. […]

The subject of assay [2] is HL-60 cells. The assay can be described thus: Differentiation of HL-60 cells (Wright Giemsa morphology, Cd11b FACS). Type of assay: cell-based, human. The note with it: single agent; five days; KN62 5 μM. On the procedure:
FIG. 7. KN-62 regulates the differentiation of myeloid leukemia cell lines. (A) Wright Giemsa-stained HL-60 cells either (a) uninduced or treated for five days with (b) KN62 or (c) ATRA. (d) CD11b expression in HL-60 cells after five days exposure to KN62 (5 μM) or ATRA (1 μM). (B) Wright-Giemsa stained NB4 cells treated for five days with KN-62 (5 μM) and ATRA as indicated. […] (C) Cd11b expression of NB4 cells treated for five days with the indicated concentrations of RA and/or KN-62. (D) Western blots with the indicated antibodies were performed on HL60 cell lysates following incubation with KN62 for the indicated period of time. (E) Western blots of NB4 cell lysates following a five day incubation with the indicated compounds.
Antibodies and chemical reagents. Antibodies against RARα, βtubulin, CaMKIIα, CaMKIIβ, CaMKIIγ, CaMKIIδ, CaMKIα, as well as phosphospecific antibodies against CaMKII were all purchased from Santa Cruz Biotechnology. Antibodies against N-CoR and SMRT were from Upstate Biotechnology. CaMKIV antibody was from BD Biosciences. Anti-FLAG antibody was from Sigma while anti-HA antibody from Novachem. Quantitation of CD11b surface antigen expression was performed utilizing the fluorescent-activated cell sorter (FACS) with PE-conjugated anti-CD11b antibody from Becton Dickinson. KN-62, KN-93 and ionomycin were obtained from Calbiochem. […]

On to `CC1=C(/C=C/C(C)=C/C=C/C(C)=C/C(=O)O)C(C)(C)CCC1` [ATRA, All-trans retinoic acid], for which, in assay [1], the “total CaMKIIγ level” value is recorded as “essentially unchanged”. Also, in assay [1] (ATRA 1 μM), the “activated CaMKIIγ level” value is “marked decrease”. With `CN([C@@H](Cc1ccc(OS(=O)(=O)c2cccc3cnccc23)cc1)C(=O)N1CCN(c2ccccc2)CC1)S(=O)(=O)c1cccc2cnccc12` [KN-62], the “HL-60 differentiation (morphologic differentiation and Cd11b expression)” value in assay [2] is listed as “potent inducer”.

The values above are taken from patent US20080255244A1, “CaM Kinase II Inhibitor Improves Retinoic Acid Therapy and Inhibits the Proliferation of Myeloid Leukemia Cells” (Fred Hutchinson Cancer Research Center, priority 2007, published 2008).
